Like-named read-outs stand apart in the source and are kept apart here. Oligonucleotides are written 5' to 3', each unit as a sugar letter and its base; * is a phosphorothioate linkage, no mark a phosphodiester; rarer units and linkages stand in square brackets, end groups in braces. Plain capitals give the bases only. d = 2'-deoxy (DNA)

Format in all cases: cell-based
One data set relates to SMAD7 protein. Description: SMAD7 protein levels in human pDCs by FACS. The conditions noted are these: 24 hrs or 48 h, any indicated concentration, no transfection. On the procedure:
PBMC from healthy donors were isolated from Buffy Coat blood (Blood Center of NY) by density-gradient centrifugation over Ficoll-Hypaque (Pharmacia Biotech). The cells were washed with PBS and re-suspended in RPMI-1640 Media with 10% inactivated fetal bovine serum, penicillin (100 U/ml) and streptomycin (100 μg/ml) and 2 mM L-glutamine (complete medium, Life Technologies). PBMC were treated with ODNs for indicated time periods at indicated concentrations, generally between 0.0001 μM and 10 μM, with CD40L plus anti-HisTag antibody, or with a vehicle control (endotoxin-free sterile water control). No transfection reagent was added with the ODNs.
SMAD7 protein levels were determined using standard FACS protocols. PBMCs were incubated on ice in the presence of Fc-Block (BD Pharmingen) for 20 minutes, washed, and incubated with antibodies specific for surface molecules or isotype-matched control mAbs. PECY-7-labeled anti-human CCR6 mAb, and PerCP-Cy5.5 labeled anti-human CD123 mAb were purchased from BD Biosciences. SMAD7 antibody was purchased from Biorbyt, Cambridge, UK. The stained cells were then subjected to FACS (FACSCanto, BD Biosciences) using the FACSDiva software. FACS analysis was performed using FlowJo software. Single, viable cells in the CCR6+CD123+ pDC gates were used for analysis of, e.g., SMAD7 protein levels.

A further data set has as its system human pDCs. Description: Intracellular IL-10, TGF-β1 and IDO expression in CCR6+CD123+ human pDCs by FACS. The conditions noted are these: 24 hrs, FIG. 2A. An excerpt:
To evaluate intracellular IL-10, TGFβ 1 and IDO expression in human pDCs, the cells were first stained with PECY-7-labeled anti-human CCR6 mAb (BD Biosciences), PerCP-Cy5.5 labeled anti-human CD123 mAb (BD Biosciences). Stained cells were then fixed and permeabilized using a Cytofix/Cytoperm kit (BD Biosciences) according to the manufacturer's instructions and stained with PE-labeled anti-human IDO (Biolegend), APC-labeled anti-human IL-10 mAb and FITC-labeled anti-human TGF-β1 (BD Biosciences), or isotype-matched control mAbs. The stained cells were acquired by FACSCanto using the FACSDiva software. FACS analysis was performed using FlowJo software. Single, viable cells in the CCR6+CD123+ pDC gates were analyzed. The flow cytometric results are expressed as the percentage and MFI of IL-10-, TGF-β1- or IDO-expressing cells in each gate. Results are expressed as the mean±SEM of cells quantified.
IL10 was alternatively measured in cellular supernatants by ELISA using standard protocols.
(Flow cytometry measures light scatter and fluorescence of single cells or particles in a stream.)

The target in the next data set is T1, TLR7 (Homo sapiens, UniProt Q9NYK1).
T1 construct: endogenous in cells; host or cells: human PBMCs from healthy donors
T1 sequence (Q9NYK1 27-1049): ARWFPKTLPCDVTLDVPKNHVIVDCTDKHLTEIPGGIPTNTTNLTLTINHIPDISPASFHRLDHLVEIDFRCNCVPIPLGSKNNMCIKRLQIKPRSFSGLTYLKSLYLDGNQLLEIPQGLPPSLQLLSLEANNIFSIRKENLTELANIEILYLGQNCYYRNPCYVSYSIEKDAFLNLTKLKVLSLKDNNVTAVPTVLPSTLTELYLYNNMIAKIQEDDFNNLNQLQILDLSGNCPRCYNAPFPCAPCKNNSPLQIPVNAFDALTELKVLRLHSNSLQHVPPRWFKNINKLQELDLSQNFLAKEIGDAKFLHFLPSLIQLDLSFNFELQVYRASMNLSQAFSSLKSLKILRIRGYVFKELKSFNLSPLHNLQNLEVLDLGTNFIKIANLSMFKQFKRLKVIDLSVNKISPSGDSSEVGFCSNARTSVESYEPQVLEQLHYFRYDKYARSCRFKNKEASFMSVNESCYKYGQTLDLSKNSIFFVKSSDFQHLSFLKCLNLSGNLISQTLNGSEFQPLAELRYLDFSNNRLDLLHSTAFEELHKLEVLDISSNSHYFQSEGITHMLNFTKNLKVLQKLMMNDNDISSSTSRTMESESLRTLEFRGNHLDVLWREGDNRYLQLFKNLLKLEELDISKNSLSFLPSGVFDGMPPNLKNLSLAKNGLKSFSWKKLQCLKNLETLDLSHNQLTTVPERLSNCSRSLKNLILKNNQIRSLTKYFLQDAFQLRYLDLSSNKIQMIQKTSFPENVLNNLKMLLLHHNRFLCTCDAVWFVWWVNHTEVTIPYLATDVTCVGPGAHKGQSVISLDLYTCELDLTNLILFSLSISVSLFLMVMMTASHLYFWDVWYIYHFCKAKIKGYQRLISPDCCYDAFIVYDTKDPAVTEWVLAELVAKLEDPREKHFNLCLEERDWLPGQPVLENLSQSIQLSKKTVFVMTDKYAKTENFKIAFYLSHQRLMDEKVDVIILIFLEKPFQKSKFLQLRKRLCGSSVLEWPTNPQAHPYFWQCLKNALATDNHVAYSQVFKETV
Put plainly: Inhibition of TLR7 (imiquimod)-induced IFNα and IP10 (CXCL10) in PBMCs. On the procedure: After 24 hours, the supernatant was harvested and tested for IFNα using MagPix Multi-Plex technology.

The subject of a further data set is human purified pDCs. Put plainly: IFN-α secretion from purified human pDCs by ELISA. The text has this: By contrast, ODN2006 induced IFN-α secretion from purified and matured pDCs, and ODN150 and ODN7040 induced IFN-α secretion from matured pDCs.
Background: In an ELISA, binding on a coated surface is turned into a signal by an enzyme label.

One may read the IC50 as the midpoint of a concentration-inhibition curve. Consider “ODN150: 5′-G*G*A*ACAGTTCGTCCAT*G*G*C-3′, PO except * = PS; antisense to p65 of NF-kB mRNA; tested clinically for ulcerative colitis (DNA dG*dG*dA*dAdCdAdGdTdTdCdGdTdCdCdAdT*dG*dG*dC)”, for which, in the data set on SMAD7 protein, the “effect on SMAD7 protein levels” value is “do not affect”. The TGF-β1 protein induction entry with human pDCs is reported as “can induce”. Besides, the IC50 was above 10 µM with TLR7 (Imiquimod 5 μg/ml 24 hours, FIGS. 8B, 9A, read-out: IC50, TLR7-mediated IFNα induction) and above 10 µM with TLR7 (imiquimod, FIG. 9B, read-out: IC50, TLR7-mediated IP10 (CXCL10) induction). For the same substance, the “IFN-α secretion from pDCs matured by IL-3 treatment” value in the data set on human purified pDCs (3 μM, 48 hours, ELISA, FIG. 18) is listed as “induced”. In the data set with human purified pDCs (pDC, relative strength, Table 6), the IFN-α result is recorded as “↑ ↑”.

(Values after US20180289692A1, “TLR MODULATORS AND METHODS OF USE” (CELGENE CORPORATION, priority 2015, published 2018).)
